From publication PMC8373063 (2021) come the findings set out here.

The structures appear in SMILES notation.

Holding throughout (assay): fluorescence polarization
The subject of experiment [1] is RNA Seq7 (RNA, single strand) UUAAGGAAGGU
The note with it: 100 mM NaCl; 20 mM HEPES, 25 °C; 0.5 μM SMN-C2.

For experiment [2], the system named is RNA Seq10 (RNA, single strand) UAAAGGAAGGU
The note with it: 100 mM NaCl; 20 mM HEPES, 25 °C; 0.5 μM SMN-C2.

Experiment [3] deals with RNA Seq12 (RNA, single strand) UGAAAGAAGGU
The note with it: 100 mM NaCl; 20 mM HEPES, 25 °C; 0.5 μM SMN-C2.

Experiment [4] deals with RNA Seq15 (RNA, single strand) UGAAGGAUGGU
The note with it: 100 mM NaCl; 20 mM HEPES, 25 °C; 0.5 μM SMN-C2.

The subject of experiment [5] is RNA Seq16 (RNA, single strand) UGAAGGAAAGU
The note with it: 100 mM NaCl; 20 mM HEPES, 25 °C; 0.5 μM SMN-C2.

For experiment [6], the system named is RNA Seq18 (binding site 1 sequence) (RNA, mismatch bulge abasic, pseudouridine at 5 and 6 of strand 1) AUACUUACCU/GGAGGUAAGUCU
The note with it: 100 mM NaCl; 20 mM HEPES, 25 °C; 0.5 μM SMN-C2.

The test system of experiment [7] is DNA Seq8 (DNA, single strand) TGAAGGAAGTT
The note with it: 100 mM NaCl, 1 mM MgCl2; 20 mM HEPES, 25 °C; 0.5 μM SMN-C2.

In experiment [8] the test system is DNA Seq9 (DNA, single strand) TTAAGGAAGTT
The note with it: 100 mM NaCl, 1 mM MgCl2; 20 mM HEPES, 25 °C; 0.5 μM SMN-C2.

Experiment [9] relates to DNA Seq13 (DNA, single strand) TGAAGAAAGGT
The note with it: 100 mM NaCl, 1 mM MgCl2; 20 mM HEPES, 25 °C; 0.5 μM SMN-C2.

Experiment [10] has as its system DNA Seq14 (DNA, single strand) AGAAGGTAGGT
The note with it: 100 mM NaCl, 1 mM MgCl2; 20 mM HEPES, 25 °C; 0.5 μM SMN-C2.

Experiment [11] has as its system DNA S26 (DNA, single strand) TGAAGGAAGG
The note with it: 100 mM NaCl, 1 mM MgCl2; 20 mM HEPES, 25 °C; 0.5 μM SMN-C2.

The test system of experiment [12] is DNA S27 (DNA, single strand) AGAAGGAAGG
The note with it: 100 mM NaCl, 1 mM MgCl2; 20 mM HEPES, 25 °C; 0.5 μM SMN-C2.

Experiment [13] concerns DNA S1 (DNA, single strand) AAAAGAAGGAAGGTGCTC
The note with it: 100 mM NaCl, 1 mM MgCl2; 20 mM HEPES, 25 °C; 0.5 μM SMN-C2.

In experiment [14] the test system is DNA S19 (DNA, single strand) AAAAGAGGGAAGGTGCTC
The note with it: 100 mM NaCl, 1 mM MgCl2; 20 mM HEPES, 25 °C; 0.5 μM SMN-C2.

The test system of experiment [15] is S6 (DNA, single strand) AAAAGAAGGAGGGTGCTC
The note with it: 100 mM NaCl, 1 mM MgCl2; 20 mM HEPES, 25 °C, 0.5 μM compound.

Experiment [16] concerns S11 (DNA, single strand) AAAAGATGGAAGGTGCTC
The note with it: 100 mM NaCl, 1 mM MgCl2; 20 mM HEPES, 25 °C, 0.5 μM compound.

The test system of experiment [17] is S12 (DNA, single strand) AAAAGAAGTAAGGTGCTC
The note with it: 100 mM NaCl, 1 mM MgCl2; 20 mM HEPES, 25 °C, 0.5 μM compound.

Experiment [18] deals with S14 (DNA, single strand) AAAAGAAGGATGGTGCTC
The note with it: 100 mM NaCl, 1 mM MgCl2; 20 mM HEPES, 25 °C, 0.5 μM compound.

For experiment [19], the system named is S21 (DNA, single strand) AAAAAAAGGAAGGTGCTC
The note with it: 100 mM NaCl, 1 mM MgCl2; 20 mM HEPES, 25 °C, 0.5 μM compound.

In experiment [20] the test system is S22 (DNA, single strand) AAAAGAAAGAAGGTGCTC
The note with it: 100 mM NaCl, 1 mM MgCl2; 20 mM HEPES, 25 °C, 0.5 μM compound.

Experiment [21] deals with RNA Seq21 (RNA, hairpin) GCGCCGACUGAAGGAAGGAGUCGGCGC
The note with it: 100 mM NaCl; 20 mM HEPES, 25 °C, 0.5 μM compound.

The test system of experiment [22] is RNA Seq22 (RNA, other) GUGCCAGUUCGCUGGCACUGAAGGAAGGU
The note with it: 100 mM NaCl; 20 mM HEPES, 25 °C, 0.5 μM compound.

Experiment [23] has as its system DNA Seq23 (DNA, mismatch bulge abasic) GCCAGGCGCACTTTCGAGTGCGCGAAGGAAGGCTGGC
The note with it: 100 mM NaCl, 1 mM MgCl2; 20 mM HEPES, 25 °C, 0.5 μM compound.

The subject of experiment [24] is RNA Seq23 (RNA, mismatch bulge abasic) GCCAGGCGCACUUUCGAGUGCGCGAAGGAAGGCUGGC
The note with it: 100 mM NaCl; 20 mM HEPES, 25 °C, 0.5 μM compound.

As a reminder, the Kd is the equilibrium constant for the complex coming apart. For the molecule `CCN1CCN(c2ccc3cc(-c4cn5cc(C)nc(C)c5n4)c(=O)oc3c2)C[C@@H]1C`, the dissociation constant Kd in experiment [1] is 42.3 ± 13.3 µM; in experiment [2], more than 100 µM; in [3] it was more than 100 µM; in [4], 9.4 ± 0.5 µM; in experiment [5], 77.0 ± 26.0 µM; in [6], 60 ± 36 µM. The dissociation constant Kd is 14.7 ± 0.7 µM in experiment [7]; more than 100 µM in [8]; more than 100 µM in experiment [9]; more than 100 µM in [10]; 6.2 ± 1.0 µM in [11]; 11.6 ± 1.7 µM in experiment [12]. Further, the dissociation constant Kd in [13] was 15.3 ± 0.6 µM; in [14], 21.0 ± 1.1 µM; in experiment [15], 33.3 ± 2.3 µM; in experiment [16], 26.3 ± 1.2 µM; in experiment [17], 37.4 ± 6.7 µM; in experiment [18], 19.5 ± 2.3 µM. In addition, the dissociation constant Kd in [19] was > > 50 µM; in experiment [20], 44.7 ± 7.2 µM; in [21], 4.6 ± 0.6 µM; in [22], 11.0 ± 0.8 µM; in experiment [23], 1.1 ± 0.2 µM; in [24], 5.6 ± 1.7 µM.
